From patent US6562837B1, “Use of tetrahydroisoquinoline compounds for the treatment of septicemia” (Korea Institute of Science & Technology, priority 1998, dated 2003)

Key:
[1] = tested on: acute thrombosis in the pulmonary artery; assay: Acute thrombosis (collagen plus epinephrine i.v.) in mice, recovery from paralysis; assay type: in vivo
Experimental: A mixture of collagen (300:μg/kg) plus epinephrine (30:μg/kg) was injected into the tail vein of mice (ICR; […], the same mice were employed in all of the following experiments) to induce massive, acute thrombosis in the pulmonary artery. Thus, an acute thrombosis model, in which mice were paralyzed in 1-3 min after the injection and most of them died within 15 min was prepared. To investigate the effect of the compounds of Chemical Formulas 1 and 2 on the acute thrombosis, either of the compounds was orally administered to mice for 1 or 3 days. The intravenous injection of the mixture of collagen and epinephrine was conducted 1 hour after the final oral administration. An observation was taken to examine the mortality change and the recovery from the paralysis and the results are given in Tables 4 and 5, below.
Most of the mice were paralyzed within 1 min after the injection, following dilation of the pupils, difficult breathing, and convulsions. Most of the mice either died within 5 min or were subjected to paralysis for 15 min or longer. Only a few of them recovered from the paralysis.

[2] = tested on: thrombus formation in AVS tube; assay: Thrombus formation in arterio-venous shunt (AVS) tube in rats; assay type: in vivo
Experimental: An AVS tube was prepared. For this, a scalp vein set was cut into a length of 18 cm, and each end was connected to a 18G syringe needle while a 100% cotton thread 5 cm long was fixed to the center of the tube. Rats were anesthetized with ketamine (250 mg/kg) by injection (i.m.) and underwent laparotomy. An AVS tube filled with saline was installed between the abdominal aorta and the renal vein in such a way that its one syringe needle was inserted in the abdominal aorta and the other syringe needle was inserted in the renal vein. Blood was allowed to pass through the AVS tube so as to form thrombus on the cotton thread. After circulation of blood through the AVS tube for 15 min, the thread was taken out from the AVS tube. The weight of the thrombus formed on the cotton thread was determined by weighing the thread.

α-receptor = assay: Binding affinity to α-adrenoceptor, [3H]prazosin, rat cerebral cortical membrane
Experimental: For this, the cerebral cortex obtained from rats (Sprague-Dawley, 250±20 g; unless particularly mentioned, the same rats were used in the following experiments) was homogeneously mixed with a 20× buffer (50 mM Tris, 5 mM MgSO4, 1 mM EDTA, 1 mM ascorbic acid, pH 7.7) and then, centrifuged three times at 35,000×g for 15 min and the pellet was stored at −70° C. A solution of 5 mg of the pellet in 1 ml of the buffer was incubated, along with [^3H]prazosin (200 pM) and samples, at 25° C. for 30 min followed by adding 10 ml of a buffer (50 mM Tris, pH 7.7) to quench the binding reaction. The resulting solution was filtered through a Whatman GF/C glass microfiber filter which was then shaken for 2 hours while being completely submerged in a scintillation cocktail. The radioactivity was measured using a scintillation counter (Beckman, LS6500)

| Structure (SMILES) | Mice Recovered, Number ([1]; 50 mg/kg orally once for three successive days, recovered within 15 min) | Mice Recovered, % ([1]; 50 mg/kg orally once for three successive days, recovered within 15 min, control 20%) | Mice Recovered, Number ([1]; 50 mg/kg orally once, recovered from thrombotic paralysis within 15 min) | Mice Recovered, % ([1]; 50 mg/kg orally once, recovered within 15 min, control 17%) | % Inhibition of thrombus formation ([2]; 50 mg/kg orally once a day for successive three days) | Weight (mg) of thrombus ([2]; 50 mg/kg orally once a day for successive three days, control 42.67 ± 5.381) | % Inhibition of thrombus formation ([2]; 50 mg/kg orally once, first series, control 33.61 mg) | Weights (mg) of thrombus ([2]; 50 mg/kg orally once, first series, control 33.61 ± 7.620) | % Inhibition of thrombus formation ([2]; 50 mg/kg orally once, second series, control 39.54 mg) | Weights (mg) of thrombus ([2]; 50 mg/kg orally once, second series, control 39.54 ± 5.625) | Kd (α-receptor) |
| --- | --- | --- | --- | --- | --- | --- | --- | --- | --- | --- | --- |
| CC(=O)Oc1ccccc1C(=O)O [Aspirin, reference compound] | 11 | 55% | 32 | 52% | 12.4% | 37.37 ± 7.369 mg | 40.8% | 19.89 ± 7.213 mg | 36.3% | 25.18 ± 6.725 mg | – |
| COc1cc2nc(N3CCN(C(=O)c4ccco4)CC3)nc(N)c2cc1OC [prazosin, reference compound] | – | – | – | – | – | – | – | – | – | – | 0.134 ± 0.00891 nM |
